tested on: estrogen receptor; test: estrogen receptor relative binding affinity, expanded training set of 107 compounds; conditions: input class, 107-compound training set
Text: The training set included weak estrogen receptor binders in addition to strong and medium estrogen receptor binders.
For this model, strong estrogen receptor binders were defined as having log(RBA)>−0.25 and weak estrogen receptor binders were defined as having log(RBA)<−3.0. Medium estrogen receptor binders were defined as having log(RBA) in between.

Compound | Class
ClC(Cl)=C(c1ccc(Cl)cc1)c1ccc(Cl)cc1 [DDE-p,p′] | W (weak estrogen receptor binders were defined as having log(RBA)<−3.0)
O=C(c1ccccc1)c1ccc(O)cc1O [2,4-Dihydroxybenzophenone] | W (weak estrogen receptor binders were defined as having log(RBA)<−3.0)
Clc1ccc(C(c2ccccc2Cl)C(Cl)Cl)cc1 (stereo not drawn) [DDD-o,p′] | W (weak estrogen receptor binders were defined as having log(RBA)<−3.0)
CC/C(=C(\c1ccc(O)cc1)c1ccc(OCCN(C)C)cc1)c1ccccc1 [4-OH-Tamoxifen] | S (strong estrogen receptor binders were defined as having log(RBA)>−0.25)
O=C(O)C=Cc1ccccc1 [Cinnamic acid] | W (weak estrogen receptor binders were defined as having log(RBA)<−3.0)
C[C@@]12CCC[C@H]1[C@@H]1CCc3cc(O)ccc3[C@H]1CC2 [Estra-1,3,5(10)-trien-3-ol] | S (strong estrogen receptor binders were defined as having log(RBA)>−0.25)
CC(C)CCC[C@@H](C)[C@H]1CC[C@H]2[C@@H]3CC=C4C[C@@H](O)CC[C@]4(C)[C@H]3CC[C@]12C [Cholesterol] | W (weak estrogen receptor binders were defined as having log(RBA)<−3.0)
Oc1ccc(C=Cc2ccccc2)cc1 [Compound 4-Stilbenol, 4-Stilbenol] | W (weak estrogen receptor binders were defined as having log(RBA)<−3.0)
O=C(c1ccc(O)cc1)c1ccc(O)cc1 [4,4′-Dihydroxybenzophenone] | M (Medium estrogen receptor binders were defined as having log(RBA) in between)
Oc1ccc(Cc2ccc(O)cc2)cc1 [BIS (4-hydroxyphenyl)-methane] | W (weak estrogen receptor binders were defined as having log(RBA)<−3.0)
C=CCc1ccc(O)c(OC)c1 [Eugenol] | W (weak estrogen receptor binders were defined as having log(RBA)<−3.0)
CCOC(=O)c1ccccc1C(=O)OCC [Diethyl phthalate] | W (weak estrogen receptor binders were defined as having log(RBA)<−3.0)
Oc1ccc(Cl)cc1Cc1cc(Cl)ccc1O [2,2′-Methylenebis (4-chlorophenol)] | M (Medium estrogen receptor binders were defined as having log(RBA) in between)
OCc1ccccc1 [Benzylalcohol] | W (weak estrogen receptor binders were defined as having log(RBA)<−3.0)
COc1ccc2[nH]cc(CCNC(C)=O)c2c1 [Melatonin] | W (weak estrogen receptor binders were defined as having log(RBA)<−3.0)
CC(CCC(=O)O)(c1ccc(O)cc1)c1ccc(O)cc1 [Diphenolic acid] | W (weak estrogen receptor binders were defined as having log(RBA)<−3.0)
C(C=Cc1ccccc1)=Cc1ccccc1 [1,4-Diphenyl-1,3-butadiene] | W (weak estrogen receptor binders were defined as having log(RBA)<−3.0)
C[C@]12C[C@H](O)[C@H]3[C@@H](CCC4=CC(=O)CC[C@@]43C)[C@@H]1CC[C@@H]2C(=O)CO [Corticosterone] | W (weak estrogen receptor binders were defined as having log(RBA)<−3.0)
CCCCOC(=O)c1ccc(N)cc1 [Butyl-4-aminobenzoate] | W (weak estrogen receptor binders were defined as having log(RBA)<−3.0)
CCCCCCC=O [Heptanal] | W (weak estrogen receptor binders were defined as having log(RBA)<−3.0)
CC(C)(C)c1cc(Cc2cc(C(C)(C)C)c(O)c(C(C)(C)C)c2)cc(C(C)(C)C)c1O [4,4′-Methylene(2,6-ditertbutylphenol)] | W (weak estrogen receptor binders were defined as having log(RBA)<−3.0)

Compound | Class
Clc1ccc(C(c2ccc(Cl)cc2)C(Cl)Cl)cc1 [DDD-p,p′] | W (weak estrogen receptor binders were defined as having log(RBA)<−3.0)
Clc1ccc(C(c2ccc(Cl)cc2)C(Cl)(Cl)Cl)cc1 [DDT-p,p′] | W (weak estrogen receptor binders were defined as having log(RBA)<−3.0)
CC12CCC(CC1)C(C)(C)O2 [Cineole] | W (weak estrogen receptor binders were defined as having log(RBA)<−3.0)
Oc1ccccc1Cc1ccccc1O [BIS (2-hydroxyphenyl)-methane] | W (weak estrogen receptor binders were defined as having log(RBA)<−3.0)
O=C(O)COc1cc(Cl)c(Cl)cc1Cl [2,4,5-T] | W (weak estrogen receptor binders were defined as having log(RBA)<−3.0)
COc1cc(C=O)ccc1O [Vanillin] | W (weak estrogen receptor binders were defined as having log(RBA)<−3.0)
OCCCCCCCCO [1,8-Octanediol] | W (weak estrogen receptor binders were defined as having log(RBA)<−3.0)
O=c1c(-c2ccc(O)cc2)coc2cc(O)ccc12 [Daidzein] | M (Medium estrogen receptor binders were defined as having log(RBA) in between)
NCCc1ccc(O)c(O)c1 [Dopamine] | W (weak estrogen receptor binders were defined as having log(RBA)<−3.0)
C[C@]12CCC(=O)C[C@H]1CC[C@@H]1[C@@H]2CC[C@]2(C)[C@@H](O)CC[C@@H]12 [Etiocholan-17β-ol-3-one] | W (weak estrogen receptor binders were defined as having log(RBA)<−3.0)
C#C[C@]1(O)CC[C@H]2[C@@H]3CCc4cc(O)ccc4[C@H]3CC[C@@]21C [Ethynyl estradiol] | S (strong estrogen receptor binders were defined as having log(RBA)>−0.25)
4,4′-Methylenebis (N,N-dimethyl) | W (weak estrogen receptor binders were defined as having log(RBA)<−3.0)
COc1ccc([C@@H]2CC(=O)c3c(O)cc(O)cc3O2)cc1O [Hesperetin] | W (weak estrogen receptor binders were defined as having log(RBA)<−3.0)
CC=Cc1ccc(O)c(OC)c1 [Isoeugenol] | W (weak estrogen receptor binders were defined as having log(RBA)<−3.0)
CCOC(=O)C=Cc1ccccc1 [Ethylcinnamate] | W (weak estrogen receptor binders were defined as having log(RBA)<−3.0)
COc1ccc(C(=O)c2ccccc2O)c(O)c1 [2,2′-Dihydroxy4-methoxybenzophene] | W (weak estrogen receptor binders were defined as having log(RBA)<−3.0)
CCCCC(CC)COC(=O)c1ccccc1C(=O)OCC(CC)CCCC (stereo not drawn) [BIS (2-ethylhexyl) phthalate] | W (weak estrogen receptor binders were defined as having log(RBA)<−3.0)
CCCCOC(=O)c1ccccc1C(=O)OCCCC [Dibutyl phthalate] | W (weak estrogen receptor binders were defined as having log(RBA)<−3.0)
C[C@]12CC[C@@H]3c4ccc(O)cc4CC[C@H]3[C@@H]1CC[C@@H]2O [17β-Estradiol] | S (strong estrogen receptor binders were defined as having log(RBA)>−0.25)
CCCCCCO [Hexylalcohol] | W (weak estrogen receptor binders were defined as having log(RBA)<−3.0)
O=P(Oc1ccccc1)(Oc1ccccc1)Oc1ccccc1 [Triphenylphosphate] | W (weak estrogen receptor binders were defined as having log(RBA)<−3.0)

tested on: estrogen receptor; test: not given; conditions: 107-compound training set; cited from earlier work

Compound | log RBA
O=C(c1ccccc1)c1ccc(O)cc1O [2,4-Dihydroxybenzophenone] | −2.61
CC/C(=C(\c1ccc(O)cc1)c1ccc(OCCN(C)C)cc1)c1ccccc1 [4-OH-Tamoxifen] | 2.24
C[C@@]12CCC[C@H]1[C@@H]1CCc3cc(O)ccc3[C@H]1CC2 [Estra-1,3,5(10)-trien-3-ol] | 1.14
O=C(c1ccc(O)cc1)c1ccc(O)cc1 [4,4′-Dihydroxybenzophenone] | −2.46
Oc1ccc(Cc2ccc(O)cc2)cc1 [BIS (4-hydroxyphenyl)-methane] | −3.02
Oc1ccc(Cl)cc1Cc1cc(Cl)ccc1O [2,2′-Methylenebis (4-chlorophenol)] | −2.45
CC(CCC(=O)O)(c1ccc(O)cc1)c1ccc(O)cc1 [Diphenolic acid] | −3.13
CCC(C)(C)c1ccc(O)cc1 [4-tert-Amylphenol] | −3.26
Oc1ccc(-c2ccccc2)cc1 [4-Phenylphenol] | −3.04
CC(C)(C)c1ccc(O)cc1 [4-tert-Butylphenol] | −3.61
Cc1cc(O)ccc1Cl [4-Chloro-3-methylphenol] | −3.38
Oc1cccc(-c2ccccc2)c1 [3-Phenylphenol] | −3.44

— patent US6898533B1, “Methods for predicting the biological, chemical, and physical properties of molecules from their spectral properties” (The United States of America as represented by the …, priority 2000, dated 2005)
